How the values were obtained:
[1] = Comparative study of the chemical stability of ivermectin in various excipients; assay type: physicochemical
Excerpt: Comparative study of the chemical stability of ivermectin in various excipients.

[2] = Maximum solubility of ivermectin in various excipients; assay type: physicochemical; conditions: room temperature
Procedure: Study of the maximum solubility of ivermectin at T=1 hour at room temperature in various excipients.

## ivermectin
[1]; in Benzyl alcohol, 25° C.
  Amount after storage at 25° C. for 1 month: 99.01%
[1]; in Benzyl alcohol, 40° C.
  Amount after storage at 40° C. for 1 month: 98.62%
[1]; in Benzyl alcohol, T0
  Amount at T0: 98.72%
[1]; in Diisopropyl adipate, 25° C.
  Amount after storage at 25° C. for 1 month: 97.19%
[1]; in Diisopropyl adipate, 40° C.
  Amount after storage at 40° C. for 1 month: 96.70%
[1]; in Diisopropyl adipate, T0
  Amount at T0: 102.5%
[1]; in Macrogol 15-hydroxystearate, 25° C.
  Amount after storage at 25° C. for 1 month: 95.32%
[1]; in Macrogol 15-hydroxystearate, 40° C.
  Amount after storage at 40° C. for 1 month: 71.88%
[1]; in Macrogol 15-hydroxystearate, T0
  Amount at T0: 98.76%
[1]; in PPG 15-stearyl ether, 25° C.
  Amount after storage at 25° C. for 1 month: 98.61%
[1]; in PPG 15-stearyl ether, 40° C.
  Amount after storage at 40° C. for 1 month: 98.07%
[1]; in PPG 15-stearyl ether, T0
  Amount at T0: 102.48%
[1]; in Phenoxyethanol, 25° C.
  Amount after storage at 25° C. for 1 month: 97.77%
[1]; in Phenoxyethanol, 40° C.
  Amount after storage at 40° C. for 1 month: 98.56%
[1]; in Phenoxyethanol, T0
  Amount at T0: 99.42%
[1]; in Poloxamer 124, 25° C.
  Amount after storage at 25° C. for 1 month: 98.19%
[1]; in Poloxamer 124, 40° C.
  Amount after storage at 40° C. for 1 month: 92.34%
[1]; in Poloxamer 124, T0
  Amount at T0: 98.09%
[1]; in diisopropyl adipate, benzyl alcohol, PPG-15 stearyl ether and phenoxyethanol, at room temperature or at 40° C.
  Stability of ivermectin (in words): good stability
[1]; in macrogol 15-hydroxystearate and in poloxamer, in particular at 40° C.
  Stability of ivermectin (in words): less stable
[2]; in Alkyl benzoate, T=1 hour
  Maximum solubility: 1.60 % (m/m)
[2]; in Capric/caprylic triglycerides, T=1 hour
  Maximum solubility: 1.70 % (m/m)
[2]; in Diisopropyl adipate, T=1 hour
  Maximum solubility: 10.40 % (m/m)
[2]; in Dimethyl isosorbide, T=1 hour
  Maximum solubility: 35.20 % (m/m)
[2]; in Ethanol rectapur, T=1 hour
  Maximum solubility: 14.47 % (m/m)
[2]; in Macrogol 15 hydroxystearate, T=1 hour
  Maximum solubility: 10.60 % (m/m)
[2]; in N-Methyl-2-pyrrolidone, T=1 hour
  Maximum solubility: 58.13 % (m/m)
[2]; in Octyl dodecanol, T=1 hour
  Maximum solubility: 2.50 % (m/m)
[2]; in Oleyl alcohol, T=1 hour
  Maximum solubility: 3.48 % (m/m)
[2]; in PEG 400, T=1 hour
  Maximum solubility: 9.14 % (m/m)
[2]; in PPG 15 stearyl ether, T=1 hour
  Maximum solubility: 3.30 % (m/m)
[2]; in Phenoxyethanol, T=1 hour
  Maximum solubility: 15.70 % (m/m)
[2]; in Poloxamer 124, T=1 hour
  Maximum solubility: 7.50 % (m/m)
[2]; in Polysorbate 80, T=1 hour
  Maximum solubility: 10.31 % (m/m)
[2]; in Propylene glycol (PG), T=1 hour
  Maximum solubility: 21.83 % (m/m)
[2]; in Triacetin, T=1 hour
  Maximum solubility: 7.22 % (m/m)

— US20090286866A1, “Double compartment skincare products comprising avermectin/milbemycin compounds” (GALDERMA S.A., priority 2006, published 2009)
